We go through 29 compounds from patent publication US20080255192A1, “Methods and Compositions for Selectin Inhibition” (Wyeth, priority 2007, published 2008).

For orientation: inhibition means the change of the read-out against control, counted positive when it falls.

Some results are limits rather than exact numbers.

The target of this assay is T1, P-selectin/PSGL-1 interaction (Homo sapiens, UniProt P16109).
T1 construct: comprised of the lectin and epidermal growth factor-like (EGF) domains expressed in CHO cells; made in house; host or cells: CHO cells (P-LE)
T1 sequence (P16109 42-198): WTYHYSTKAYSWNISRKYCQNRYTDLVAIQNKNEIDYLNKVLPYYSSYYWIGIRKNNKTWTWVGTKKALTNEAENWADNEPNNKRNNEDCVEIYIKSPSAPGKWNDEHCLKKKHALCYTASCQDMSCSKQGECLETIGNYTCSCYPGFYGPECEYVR
The assay can be described thus: Biacore P-Selectin/PSGL-1 Inhibition Assay (surface plasmon resonance). The class given is binding. Particulars: 250 uM test compound, 500 nM P.LE, immobilized PSGL-1 19ek, 10% DMSO, pH 7.4. The method, then:
Surface plasmon resonance assays were performed on a Biacore 3000 instrument (Biacore Inc. Piscataway, N.J.) at 25° C. at a flow rate of 30 μL/minute and each assay consisted of a 60-second equilibration, a 60-μL sample injection (kinject), and a 300-second dissociation.
A purified, monomeric, truncated form of human PSGL-1, “19ek”, that contained all the necessary P-selectin binding determinants (see Goetz, et al., J. Cell Biol., 1997, 137: 509-519; and Sako, et al., Cell, 1995, 83: 323-331) was biotinylated via amine chemistry (Sulfo-NHS-LC-Biotin, Peirce) at a unique C-terminal lysine residue (see Somers, et al., Cell, 2000, 103: 467-479) and immobilized on a Biacore SA sensor chip (Biacore Inc.), using an HBS-EP buffer (Biacore Inc.), and the target 600-700 RU. The coated chip was re-equilibrated with an HBS-P buffer (Biacore Inc.) to which 1 mM CaCl2 and 1 mM MgCl2 (both from Fisher) were added to ensure sufficient calcium for the calcium-dependent interaction between the receptor and the ligand.
Test compounds were incubated for 1 hour in a 1.1× Biacore assay buffer. Each solution was centrifuged through a 0.2 µm filter, using a 96-well plate format (Millipore). Glycyrrhizin tri-sodium salt (TCI) was prepared as a positive control in parallel with the test compounds, in the same manner described above.
A soluble recombinant truncated form of human P-selectin, P-LE, comprised of the lectin and epidermal growth factor-like (EGF) domains expressed in CHO cells (see Somers, et al., Cell, 2000, 103: 467-479) was added to each filtered test compound solution. Final concentrations of reagents were 500 nM P.LE, 250 or 500 μM test compound (depending on structure) or 1 mM glycyrrhizin, 10% DMSO, and 1× Biacore buffer ([…], 150 mM NaCl, 1 mM CaCl2, and 1 mM MgCl2 (all reagents from Fisher)), with a pH of 7.4. Compounds active at 250 μM were titrated to further define activity. Test samples were supplied to the Biacore instrument in a 96-well plate.
The Biacore raw data file was exported as a text file to an Excel spreadsheet, where the buffer blanks bracketing the samples were averaged for each Biacore instrument flow cell (Fc), and subtracted from the averaged uninhibited P.LE samples and from all the other samples. The reference signal from Fcl (uncoated) was then subtracted from its corresponding active (coated) signal for each injection, a process known as double referencing (see Myszka, J. Mol. Recognit., 1999, 12(5): 279-284). The percent inhibition of binding was calculated by dividing the reference-subtracted inhibited signal by the reference-subtracted uninhibited signal, subtracting this value from 1, and multiplying the resulting value by 100. The replicate percent inhibition values were averaged and expressed as the mean ±standard deviation. The inter-experiment standard deviation of calculated percent inhibitions in the Biacore assay was ±5.
(SPR reads the build-up and loss of mass on a sensor chip optically.)
`O=C(O)c1c(O)c(C2(c3ccc(Cl)cc3)CCC2)nc2c(C(F)(F)F)cccc12` [Compound 58, 2-(1-(4-chlorophenyl)cyclobutyl)-3-hydroxy-8-(trifluoromethyl)quinoline-4-carboxylic acid]: the inhibition at 250 µM was not above 10%.

`Cc1cccc2c(C(=O)O)c(O)c(C3(c4ccccc4)CC3)nc12` [Compound 31, 3-hydroxy-8-methyl-2-(1-phenylcyclopropyl)quinoline-4-carboxylic acid] yielded an inhibition at 250 µM not above 10%.

`O=C(O)c1c(O)c(C2(c3ccc(Cl)cc3)CC2)nc2ccc(C(F)(F)F)cc12` [Compound 24, 2-(1-(4-chlorophenyl)cyclopropyl)-3-hydroxy-6-(trifluoromethyl)quinoline-4-carboxylic acid]: the inhibition at 250 µM came to 34%.

For `O=C(O)c1c(O)c(C2(c3ccc(Cl)cc3)CC2)nc2c(Cl)cccc12` [Compound 5, 8-chloro-2-(1-(4-chlorophenyl)cyclopropyl)-3-hydroxyquinoline-4-carboxylic acid], 250 µM produced 93% inhibition.

Regarding `O=C(O)c1c(O)c(C2(c3ccccc3)CC2)nc2c(-c3ccsc3)cccc12` [Compound 35, 3-hydroxy-2-(1-phenylcyclopropyl)-8-(thiophen-3-yl)quinoline-4-carboxylic acid], the inhibition at 250 µM came to 70%.

Turning to `O=C(O)c1c(O)c(C2(c3ccccc3Cl)CC2)nc2c(C(F)(F)F)cccc12` [Compound 55, 2-(1-(2-chlorophenyl)cyclopropyl)-3-hydroxy-8-(trifluoromethyl)quinoline-4-carboxylic acid], testing at 250 µM gave an inhibition of 57%.

Compound `O=C(O)c1c(O)c(C2(c3ccc(Cl)cc3)CC2)nc2c(Br)cccc12` [Compound 9, 8-bromo-2-(1-(4-chlorophenyl)cyclopropyl)-3-hydroxyquinoline-4-carboxylic acid] showed an inhibition at 250 µM of 46%.

Compound `CC(C)(c1ccc(Cl)cc1)c1nc2c(C(F)(F)F)cccc2c(C(=O)O)c1O` [Compound 119, 2-(2-(4-Chlorophenyl)propan-2-yl)-3-hydroxy-8-(trifluoromethyl)quinoline-4-carboxylic acid] yielded an inhibition at 250 µM not above 10%.

`CC(C)c1cccc2c(C(=O)O)c(O)c(C(C)(C)c3ccc(Cl)cc3)nc12` [Compound 118, 2-(2-(4-Chlorophenyl)propan-2-yl)-3-hydroxy-8-isopropylquinoline-4-carboxylic acid] showed an inhibition at 250 µM not above 10%.

For the compound `O=C(O)c1c(O)c(C2(c3ccccc3)CC2)nc2ccc(Cl)cc12` [Compound 30, 6-chloro-3-hydroxy-2-(1-phenylcyclopropyl)quinoline-4-carboxylic acid], the inhibition at 250 µM was not above 10%.

In turn, `Cc1ccc2c(C(=O)O)c(O)c(C3(c4ccc(Cl)cc4)CC3)nc2c1C` [Compound 40, 2-(1-(4-chlorophenyl)cyclopropyl)-3-hydroxy-7,8-dimethylquinoline-4-carboxylic acid] showed an inhibition at 250 µM of 53%.

Consider `Cc1ccc2c(C(=O)O)c(O)c(C3(c4ccc(F)cc4)CC3)nc2c1C` [Compound 81, 2-(1-(4-fluorophenyl)cyclopropyl)-3-hydroxy-7,8-dimethylquinoline-4-carboxylic acid], for which testing at 250 µM gave an inhibition of 23%.

Regarding `O=C(O)c1c(O)c(C2(c3ccc(Cl)cc3)CC2)nc2ccc(OC(F)(F)F)cc12` [Compound 21, 2-(1-(4-chlorophenyl)cyclopropyl)-3-hydroxy-6-(trifluoromethoxy)quinoline-4-carboxylic acid], at 250 µM the inhibition was 28%.

The compound `O=C(O)c1c(O)c(C2(c3ccc(Cl)cc3)CC2)nc2c(C(F)(F)F)cc(Cl)cc12` [Compound 95, 6-chloro-2-(1-(4-chlorophenyl)cyclopropyl)-3-hydroxy-8-(trifluoromethyl)quinoline-4-carboxylic acid] displayed an inhibition at 250 µM not above 10%.

In turn, `O=C(O)c1c(O)c(C2(c3cccs3)CC2)nc2c(C(F)(F)F)cccc12` [Compound 60, 3-hydroxy-2-(1-(thiophen-2-yl)cyclopropyl)-8-(trifluoromethyl)quinoline-4-carboxylic acid] registered an inhibition at 250 µM of 15%.

As to `O=C(O)c1c(O)c(C2(c3ccc(Cl)cc3)CC2)nc2c(C(=O)O)cccc12` [Compound 108, 2-(1-(4-chlorophenyl)cyclopropyl)-3-hydroxyquinoline-4,8-dicarboxylic acid], the inhibition at 250 µM is 12%.

Turning to `Cc1ccc2c(C(=O)O)c(O)c(C(c3ccccc3)C(C)C)nc2c1C` (centres unmarked) [Compound 131, 3-Hydroxy-7,8-dimethyl-2-(2-methyl-1-phenylpropyl)quinoline-4-carboxylic acid], testing at 250 µM gave an inhibition of 90%.

For the compound `O=C(O)c1c(O)c(C2(c3ccccc3)CC2)nc2c3c(ccc12)CCCC3` [Compound 42, 3-hydroxy-2-(1-phenylcyclopropyl)-7,8,9,10-tetrahydrobenzo[h]quinoline-4-carboxylic acid], at 250 µM the inhibition was 52%.

Take `CC(c1ccc(Cl)cc1)c1nc2c3c(ccc2c(C(=O)O)c1O)CCCC3` (centres unmarked) [Compound 124, 2-(1-(4-chlorophenyl)ethyl)-3-hydroxy-7,8,9,10-tetrahydrobenzo[h]quinoline-4-carboxylic acid]: the inhibition at 250 µM was not above 10%.

`CC(C)(c1ccc(Cl)cc1)c1nc2c(C(O)(C(F)(F)F)C(F)(F)F)cccc2c(C(=O)O)c1O` [Compound 122, 2-(2-(4-chlorophenyl)propan-2-yl)-8-(1,1,1,3,3,3-hexafluoro-2-hydroxypropan-2-yl)-3-hydroxyquinoline-4-carboxylic acid] showed an inhibition at 250 µM not above 10%.

`CC(C)(c1ccc(Cl)cc1)c1nc2c3c(ccc2c(C(=O)O)c1O)CCCC3` [Compound 120, 2-(2-(4-Chlorophenyl)propan-2-yl)-3-hydroxy-7,8,9,10-tetrahydrobenzo[h]quinoline-4-carboxylic acid] gave an inhibition at 250 µM not above 10%.

The compound `CCc1ccc2c(C(=O)O)c(O)c(C3(c4ccc(Cl)cc4)CC3)nc2c1` [Compound 12, 2-(1-(4-chlorophenyl)cyclopropyl)-7-ethyl-3-hydroxyquinoline-4-carboxylic acid] gave an inhibition at 250 µM of 13%.

For `CCc1cccc2c(C(=O)O)c(O)c(C3(c4ccc(Cl)cc4)CC3)nc12` [Compound 2, 2-(1-(4-chlorophenyl)cyclopropyl)-8-ethyl-3-hydroxyquinoline-4-carboxylic acid], 250 µM produced 67% inhibition.

In the case of `CCC(C)c1cccc2c(C(=O)O)c(O)c(C3(c4ccccc4)CC3)nc12` (centres unmarked) [Compound 15, 8-sec-butyl-3-hydroxy-2-(1-phenylcyclopropyl)quinoline-4-carboxylic acid], the inhibition at 250 µM turned out to be 63%.

`Cc1cccc2c(C(=O)O)c(O)c(C3(c4ccc(F)cc4)CC3)nc12` [Compound 78, 2-(1-(4-fluorophenyl)cyclopropyl)-3-hydroxy-8-methylquinoline-4-carboxylic acid] came in with an inhibition at 250 µM of 10%.

For the compound `CC(C)(c1ccccc1)c1nc2c(C(F)(F)F)cccc2c(C(=O)O)c1O` [Compound 117, 3-hydroxy-2-(2-phenylpropan-2-yl)-8-(trifluoromethyl)quinoline-4-carboxylic acid], the inhibition at 250 µM was 55%.

`Cc1cc(C)c2nc(C3(c4ccccc4)CC3)c(O)c(C(=O)O)c2c1` [Compound 64, 3-hydroxy-6,8-dimethyl-2-(1-phenylcyclopropyl)quinoline-4-carboxylic acid] returned an inhibition at 250 µM of 20%.

With `O=C(O)c1c(O)c(CC2(c3ccccc3)CC2)nc2c(C(F)(F)F)cccc12` [Compound 111, 3-hydroxy-2-(1-phenyl-cyclopropylmethyl)-8-trifluoromethyl-quinoline-4-carboxylic acid], the inhibition at 250 µM amounted to 46%.

As for `CCc1cc(C(F)(F)F)cc2c(C(=O)O)c(O)c(C3(c4ccc(Cl)cc4)CC3)nc12` [Compound 99, 2-(1-(4-chlorophenyl)cyclopropyl)-8-ethyl-3-hydroxy-6-(trifluoromethyl)quinoline-4-carboxylic acid], the inhibition at 250 µM is not above 10%.
